The term IC50 denotes the midpoint of a concentration-inhibition curve.

Positions of bridges follow the written chain, without caps; N, C: chain ends. Non-standard residues stand in square brackets, D forms with d. Residues, ends and D or L forms follow the SMILES beside them. Bip(4'-COOH) = N[C@@H](Cc1ccc(-c2ccc(C(=O)O)cc2)cc1)C(=O)O; Bip(4'-NHAc) = CC(=O)Nc1ccc(-c2ccc(C[C@H](N)C(=O)O)cc2)cc1; Ala(morpholin-4-yl) = N[C@@H](CN1CCOCC1)C(=O)O; Bip = N[C@@H](Cc1ccc(-c2ccccc2)cc1)C(=O)O; NMeF = CN[C@@H](Cc1ccccc1)C(=O)O; 2Pal = N[C@@H](Cc1ccccn1)C(=O)O; 3Pal = N[C@@H](Cc1cccnc1)C(=O)O; Chg = N[C@H](C(=O)O)C1CCCCC1; Aze = O=C(O)[C@@H]1CCN1; Sar = CNCC(=O)O

TNFα, sequence (P01375 77-233 limits assumed): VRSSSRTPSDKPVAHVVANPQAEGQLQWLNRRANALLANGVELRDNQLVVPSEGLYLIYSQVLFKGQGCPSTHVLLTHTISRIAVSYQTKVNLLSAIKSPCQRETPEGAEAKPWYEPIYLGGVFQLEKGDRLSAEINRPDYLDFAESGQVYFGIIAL

The assay addresses TNFα (Homo sapiens, UniProt P01375). The experiment in a line: TNF-Induced HEK-Blue Assay. The assay is classed as cell-based. To be noted: HEK-Blue-CD40L cells, NF-kB-driven secreted alkaline phosphatase reporter; TNFα 0.5 ng/ml; 18 h; read-out: TNF induced HEK-Blue assay IC50 value.
In the case of `CC(=O)Nc1ccc(-c2ccc(C[C@@H]3NC(=O)[C@H](Cc4ccc(-c5ccccc5)cc4)NC(=O)[C@H](CN4CCOCC4)NC(=O)CSC[C@@H](C(=O)NCC(N)=O)NC(=O)[C@H](CC(C)C)NC(=O)[C@H](Cc4ccc(O)cc4)NC(=O)[C@H](C4CCCCC4)NC(=O)[C@@H]4CCCN4C(=O)[C@H](C(C)C)NC(=O)[C@H](CCCNC(=N)N)NC(=O)[C@H](CC(=O)O)NC(=O)[C@@H]4CCCN4C(=O)CN(C)C3=O)cc2)cc1` [Example 210] ({CH2CO}-[Ala(morpholin-4-yl)][Bip][Bip(4'-NHAc)][Sar]PDRVP[Chg]YLCG-NH2; thioether N-13), the IC50 is < 50 nM. In the case of `CC(=O)Nc1ccc(-c2ccc(C[C@@H]3NC(=O)[C@H](Cc4ccc(-c5ccccc5)cc4)NC(=O)[C@H](CN4CCOCC4)NC(=O)CSC[C@@H](C(=O)NCC(N)=O)NC(=O)[C@H](CC(C)C)NC(=O)[C@H](Cc4cnc[nH]4)NC(=O)[C@H](C(C)C)NC(=O)[C@@H]4CCCN4C(=O)[C@H](C(C)C)NC(=O)[C@@H](CCCNC(=N)N)NC(=O)[C@H](CC(=O)O)NC(=O)[C@H](Cc4cnc[nH]4)NC(=O)CN(C)C3=O)cc2)cc1` [Example 211] ({CH2CO}-[Ala(morpholin-4-yl)][Bip][Bip(4'-NHAc)][Sar]HD[dR]VPVHLCG-NH2; thioether N-13) it was 200 to 2000 nM; in that of `CC(=O)Nc1ccc(-c2ccc(C[C@@H]3NC(=O)[C@H](Cc4ccc(-c5ccccc5)cc4)NC(=O)[C@H](CN4CCOCC4)NC(=O)CSC[C@@H](C(=O)NCC(N)=O)NC(=O)[C@H](CC(C)C)NC(=O)[C@H](CCCNC(=N)N)NC(=O)[C@H](C(C)C)NC(=O)[C@@H]4CCCN4C(=O)[C@H](C(C)C)NC(=O)[C@@H](CCCNC(=N)N)NC(=O)[C@H](CC(=O)O)NC(=O)[C@H](Cc4cnc[nH]4)NC(=O)CN(C)C3=O)cc2)cc1` [Example 212] ({CH2CO}-[Ala(morpholin-4-yl)][Bip][Bip(4'-NHAc)][Sar]HD[dR]VPVRLCG-NH2; thioether N-13), < 50 nM; in that of `CC(=O)Nc1ccc(-c2ccc(C[C@@H]3NC(=O)[C@H](Cc4ccc(-c5ccccc5)cc4)NC(=O)[C@H](CN4CCOCC4)NC(=O)CSC[C@@H](C(=O)NCC(N)=O)NC(=O)[C@H](CC(C)C)NC(=O)[C@H](Cc4cnc[nH]4)NC(=O)[C@H](C(C)C)NC(=O)[C@@H]4CCCN4C(=O)[C@H](C(C)C)NC(=O)[C@@H](CCCNC(=N)N)NC(=O)[C@H](CC(=O)O)NC(=O)[C@H](Cc4ccc(O)cc4)NC(=O)CN(C)C3=O)cc2)cc1` [Example 213] ({CH2CO}-[Ala(morpholin-4-yl)][Bip][Bip(4'-NHAc)][Sar]YD[dR]VPVHLCG-NH2; thioether N-13), < 50 nM.

`CC(C)C[C@@H]1NC(=O)[C@H](Cc2ccccc2)NC(=O)[C@H](C(C)C)NC(=O)[C@@H]2CCCN2C(=O)[C@H](C(C)C)NC(=O)[C@@H](CCCNC(=N)N)NC(=O)[C@H](CC(=O)O)NC(=O)[C@H](Cc2ccccc2)NC(=O)CN(C)C(=O)[C@H](Cc2ccc(-c3ccccc3)cc2)NC(=O)[C@H](Cc2ccc(-c3ccc(C(=O)O)cc3)cc2)NC(=O)[C@H](CN2CCOCC2)NC(=O)CSC[C@@H](C(=O)NCC(N)=O)NC1=O` [Example 216] ({CH2CO}-[Ala(morpholin-4-yl)][Bip(4'-COOH)][Bip][Sar]FD[dR]VPVFLCG-NH2; thioether N-13): the IC50 is 200 to 2000 nM. As for `CC(=O)Nc1ccc(-c2ccc(C[C@@H]3NC(=O)[C@H](Cc4ccc(-c5ccccc5)cc4)NC(=O)[C@H](CN4CCOCC4)NC(=O)CSC[C@@H](C(=O)NCC(N)=O)NC(=O)[C@H](CC(C)C)NC(=O)[C@H](Cc4ccccc4)NC(=O)[C@H](C(C)C)NC(=O)[C@@H]4CCN4C(=O)[C@H](C(C)C)NC(=O)[C@@H](CCCNC(=N)N)NC(=O)[C@H](CC(=O)O)NC(=O)[C@H](Cc4ccccc4)NC(=O)CN(C)C3=O)cc2)cc1` [Example 217] ({CH2CO}-[Ala(morpholin-4-yl)][Bip][Bip(4'-NHAc)][Sar]FD[dR]V[Aze]VFLCG-NH2; thioether N-13), the IC50 lay in the range of 50 to 200 nM. In the case of `CC(=O)Nc1ccc(-c2ccc(C[C@@H]3NC(=O)[C@H](Cc4ccc(-c5ccccc5)cc4)NC(=O)[C@H](CN4CCOCC4)NC(=O)CSC[C@@H](C(=O)NCC(N)=O)NC(=O)[C@H](CC(C)C)NC(=O)[C@H](CCCNC(=N)N)NC(=O)[C@H](C4CCCCC4)NC(=O)[C@@H]4CCCN4C(=O)[C@H](CC(N)=O)NC(=O)[C@@H](CCCNC(=N)N)NC(=O)[C@H](CC(=O)O)NC(=O)[C@H](Cc4ccccn4)NC(=O)CN(C)C3=O)cc2)cc1` [Example 218] ({CH2CO}-[Ala(morpholin-4-yl)][Bip][Bip(4'-NHAc)][Sar][2Pal]D[dR]NP[Chg]RLCG-NH2; thioether N-13), the IC50 was 50 to 200 nM. In the case of `CC(C)C[C@@H]1NC(=O)[C@H](Cc2ccccc2)N(C)C(=O)[C@H](C(C)C)NC(=O)[C@@H]2CCCN2C(=O)[C@H](C(C)C)NC(=O)[C@@H](CCCNC(=N)N)NC(=O)[C@H](CC(=O)O)NC(=O)[C@H](Cc2ccc(O)cc2)NC(=O)CN(C)C(=O)[C@H](Cc2ccc(-c3ccccc3)cc2)NC(=O)[C@H](Cc2ccc(-c3ccc(C(=O)O)cc3)cc2)NC(=O)[C@H](CN2CCOCC2)NC(=O)CSC[C@@H](C(=O)NCC(N)=O)NC1=O` [Example 220] ({CH2CO}-[Ala(morpholin-4-yl)][Bip(4'-COOH)][Bip][Sar]YD[dR]VPV[NMeF]LCG-NH2; thioether N-13) it was < 50 nM; in that of `CC(=O)Nc1ccc(-c2ccc(C[C@@H]3NC(=O)[C@H](Cc4ccc(-c5ccccc5)cc4)NC(=O)[C@H](CN4CCOCC4)NC(=O)CSC[C@@H](C(=O)NCC(N)=O)NC(=O)[C@H](CC(C)C)NC(=O)[C@H](Cc4ccc(O)cc4)NC(=O)[C@H](C(C)C)NC(=O)[C@@H]4CCN4C(=O)[C@H](C(C)C)NC(=O)[C@@H](CCCNC(=N)N)NC(=O)[C@H](CC(=O)O)NC(=O)[C@H](Cc4ccccc4)NC(=O)CN(C)C3=O)cc2)cc1` [Example 221] ({CH2CO}-[Ala(morpholin-4-yl)][Bip][Bip(4'-NHAc)][Sar]FD[dR]V[Aze]VYLCG-NH2; thioether N-13), < 50 nM; in that of `CC(=O)Nc1ccc(-c2ccc(C[C@@H]3NC(=O)[C@H](Cc4ccc(-c5ccccc5)cc4)NC(=O)[C@H](CN4CCOCC4)NC(=O)CSC[C@@H](C(=O)NCC(N)=O)NC(=O)[C@H](CC(C)C)NC(=O)[C@H](Cc4ccccn4)NC(=O)[C@H](C(C)C)NC(=O)[C@@H]4CCCN4C(=O)[C@H](C(C)C)NC(=O)[C@@H](CCCNC(=N)N)NC(=O)[C@H](CC(=O)O)NC(=O)[C@H](Cc4ccc(O)cc4)NC(=O)CN(C)C3=O)cc2)cc1` [Example 222] ({CH2CO}-[Ala(morpholin-4-yl)][Bip][Bip(4'-NHAc)][Sar]YD[dR]VPV[2Pal]LCG-NH2; thioether N-13), < 50 nM.

Consider `CC(=O)Nc1ccc(-c2ccc(C[C@@H]3NC(=O)[C@H](Cc4ccc(-c5ccccc5)cc4)NC(=O)[C@H](CN4CCOCC4)NC(=O)CSC[C@@H](C(=O)NCC(N)=O)NC(=O)[C@H](CC(C)C)NC(=O)[C@H](Cc4cccnc4)NC(=O)[C@H](C(C)C)NC(=O)[C@@H]4CCCN4C(=O)[C@H](C(C)C)NC(=O)[C@@H](CCCNC(=N)N)NC(=O)[C@H](CC(=O)O)NC(=O)[C@H](Cc4ccc(O)cc4)NC(=O)CN(C)C3=O)cc2)cc1` [Example 223] ({CH2CO}-[Ala(morpholin-4-yl)][Bip][Bip(4'-NHAc)][Sar]YD[dR]VPV[3Pal]LCG-NH2; thioether N-13), for which the IC50 is < 50 nM. As to `CC(=O)Nc1ccc(-c2ccc(C[C@@H]3NC(=O)[C@H](Cc4ccc(-c5ccc(C(=O)O)cc5)cc4)NC(=O)[C@H](CN4CCOCC4)NC(=O)CSC[C@@H](C(=O)NCC(N)=O)NC(=O)[C@H](CC(C)C)NC(=O)[C@H](Cc4ccccc4)NC(=O)[C@H](C(C)C)NC(=O)[C@@H]4CCCN4C(=O)[C@H](C(C)C)NC(=O)[C@@H](CCCNC(=N)N)NC(=O)[C@H](CC(=O)O)NC(=O)[C@H](Cc4ccccc4)NC(=O)CN(C)C3=O)cc2)cc1` [Example 225] ({CH2CO}-[Ala(morpholin-4-yl)][Bip(4'-COOH)][Bip(4'-NHAc)][Sar]FD[dR]VPVFLCG-NH2; thioether N-13), the IC50 was in the range of 50 to 200 nM.

`CC(=O)Nc1ccc(-c2ccc(C[C@@H]3NC(=O)[C@H](Cc4ccc(-c5ccc(C(=O)O)cc5)cc4)NC(=O)[C@H](CN4CCOCC4)NC(=O)CSC[C@@H](C(=O)NCC(N)=O)NC(=O)[C@H](CC(C)C)NC(=O)[C@H](CCCNC(=N)N)NC(=O)[C@H](C(C)C)NC(=O)[C@@H]4CCCN4C(=O)[C@H](CC(N)=O)NC(=O)[C@@H](CCCNC(=N)N)NC(=O)[C@H](CC(=O)O)NC(=O)[C@H](Cc4ccccn4)NC(=O)CN(C)C3=O)cc2)cc1` [Example 226] ({CH2CO}-[Ala(morpholin-4-yl)][Bip(4'-COOH)][Bip(4'-NHAc)][Sar][2Pal]D[dR]NPVRLCG-NH2; thioether N-13): the IC50 was 50 to 200 nM. Consider `CC(=O)Nc1ccc(-c2ccc(C[C@@H]3NC(=O)[C@H](Cc4ccc(-c5ccccc5)cc4)NC(=O)[C@H](CN4CCOCC4)NC(=O)CSC[C@@H](C(=O)NCC(N)=O)NC(=O)[C@H](CC(C)C)NC(=O)[C@H](Cc4ccccc4)NC(=O)[C@H](C(C)C)NC(=O)[C@@H]4CCCN4C(=O)[C@H](C(C)C)NC(=O)[C@@H](CCCNC(=N)N)NC(=O)[C@H](CC(=O)O)NC(=O)[C@H](Cc4ccccn4)NC(=O)CN(C)C3=O)cc2)cc1` [Example 227] ({CH2CO}-[Ala(morpholin-4-yl)][Bip][Bip(4'-NHAc)][Sar][2Pal]D[dR]VPVFLCG-NH2; thioether N-13), for which the IC50 is 50 to 200 nM. The same measure for `CC(=O)Nc1ccc(-c2ccc(C[C@@H]3NC(=O)[C@H](Cc4ccc(-c5ccccc5)cc4)NC(=O)[C@H](CN4CCOCC4)NC(=O)CSC[C@@H](C(=O)NCC(N)=O)NC(=O)[C@H](CC(C)C)NC(=O)[C@H](Cc4ccccn4)NC(=O)[C@H](C(C)C)NC(=O)[C@@H]4CCCN4C(=O)[C@H](C(C)C)NC(=O)[C@@H](CCCNC(=N)N)NC(=O)[C@H](CC(=O)O)NC(=O)[C@H](Cc4ccccc4)NC(=O)CN(C)C3=O)cc2)cc1` [Example 228] ({CH2CO}-[Ala(morpholin-4-yl)][Bip][Bip(4'-NHAc)][Sar]FD[dR]VPV[2Pal]LCG-NH2; thioether N-13): < 50 nM.

For the origin of these results see patent US20250145665A1, “MACROCYCLIC PEPTIDES USEFUL AS MODULATORS OF TNF ALPHA” (Bristol-Myers Squibb Company, priority 2023, published 2025).
